For this test, the target named is Acetylcholinesterase (Torpedo californica, UniProt P04058). The experiment in a line: Inhibition of Torpedo californica AChE (type VI-S) using acetylthiocholine iodide as substrate assessed as 5-thio-2-nitrobenzoate anion formation preincubated for 15 mins followed by substrate addition. Also noted: species or system Tetronarce californica.
Acetylcholinesterase, sequence (P04058 whole entry): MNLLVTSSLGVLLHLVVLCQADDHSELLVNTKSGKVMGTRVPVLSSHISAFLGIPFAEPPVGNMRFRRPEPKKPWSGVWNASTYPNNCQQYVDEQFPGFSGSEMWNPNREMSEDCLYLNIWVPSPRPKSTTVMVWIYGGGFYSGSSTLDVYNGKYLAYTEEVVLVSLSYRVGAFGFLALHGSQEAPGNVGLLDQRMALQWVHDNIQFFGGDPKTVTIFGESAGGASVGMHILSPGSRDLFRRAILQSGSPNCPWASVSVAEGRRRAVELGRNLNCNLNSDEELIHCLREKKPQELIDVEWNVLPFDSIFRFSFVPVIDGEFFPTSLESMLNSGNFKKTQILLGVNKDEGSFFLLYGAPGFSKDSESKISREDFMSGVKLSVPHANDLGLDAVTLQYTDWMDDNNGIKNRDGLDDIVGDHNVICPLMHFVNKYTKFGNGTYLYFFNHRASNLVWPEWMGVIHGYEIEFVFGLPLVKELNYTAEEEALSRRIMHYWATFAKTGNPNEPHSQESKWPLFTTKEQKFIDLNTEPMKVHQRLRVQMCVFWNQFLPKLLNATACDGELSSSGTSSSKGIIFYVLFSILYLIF
Take `O=C(/C=C/c1ccc[n+](Cc2ccccc2)c1)c1cc2ccccc2o1`: the 50% inhibitory concentration (IC50) – broadly, the point on the concentration scale where inhibition reaches its midpoint – came to 58 nM. Then `O=C(/C=C/c1ccc[n+](Cc2ccccc2Br)c1)c1cc2ccccc2o1`, with 35 nM; and `O=C(/C=C/c1ccc[n+](Cc2ccc(Br)cc2)c1)c1cc2ccccc2o1`, with 357 nM; and `O=C(/C=C/c1ccc[n+](Cc2ccc([N+](=O)[O-])cc2)c1)c1cc2ccccc2o1`, with 29200 nM. `O=C(/C=C/c1ccc[n+](Cc2ccccc2)c1)c1cc2cc(Br)ccc2o1`: the half-maximal inhibitory concentration (IC50) was 5410 nM. For the molecule `O=C(/C=C/c1ccc[n+](Cc2ccccc2Br)c1)c1cc2cc(Br)ccc2o1`, the IC50 amounted to 2150 nM. Then `O=C(/C=C/c1ccc[n+](Cc2ccc(Br)cc2)c1)c1cc2cc(Br)ccc2o1`, with 31000 nM.

Regarding `O=C(/C=C/c1ccc[n+](Cc2cccc(Cl)c2Cl)c1)c1cc2cc(Br)ccc2o1`, the 50% inhibitory concentration (IC50) turned out to be 2850 nM.

For `O=C(/C=C/c1ccc[n+](Cc2ccc(Cl)c(Cl)c2)c1)c1cc2cc(Br)ccc2o1`, the IC50 turned out to be 786 nM. Then `COc1cccc2cc(C(=O)/C=C/c3ccc[n+](Cc4ccccc4)c3)oc12`, with 3890 nM; and `COc1cccc2cc(C(=O)/C=C/c3ccc[n+](Cc4ccccc4Br)c3)oc12`, with 27 nM. Consider `COc1cccc2cc(C(=O)/C=C/c3ccc[n+](Cc4ccc(Br)cc4)c3)oc12`, for which the IC50 turned out to be 10700 nM.

With `COc1cccc2cc(C(=O)/C=C/c3ccc[n+](Cc4ccc(Cl)cc4)c3)oc12`, the IC50 was determined as 11200 nM.

Consider `COc1cccc2cc(C(=O)/C=C/c3ccc[n+](Cc4cccc(Cl)c4Cl)c3)oc12`, for which the IC50 came out at 985 nM. Then `O=C(/C=C/c1cc[n+](Cc2ccccc2)cc1)c1cc2ccccc2o1`, with 64 nM; and `O=C(/C=C/c1cc[n+](Cc2ccccc2Br)cc1)c1cc2ccccc2o1`, with 41 nM; and `O=C(/C=C/c1cc[n+](Cc2cccc(Cl)c2Cl)cc1)c1cc2ccccc2o1`, with 3120 nM. Then `O=C(/C=C/c1cc[n+](Cc2ccccc2)cc1)c1cc2cc(Br)ccc2o1`, with 5960 nM.

For the origin of these results see ChEMBL document CHEMBL3632530, “Synthesis and structure-activity relationship study of benzofuran-based chalconoids bearing benzylpyridinium moiety as potent acetylcholinesterase inhibitors” (Eur J Med Chem, 2015).
